Experimental data as given in ChEMBL document CHEMBL1154259, “Cell recognition enhanced enzyme hydrolysis of a model peptide-drug conjugate” (Bioorg Med Chem Lett, 2009).
Active and inactive are the calls of the source. No cut-off for these calls is given here. Where a SMILES comes first, the peptide text is derived from it. The star is where a group is joined. ACC = NC(=O)Cc1cc(=O)oc2cc(N*)ccc12

Experiments:
[1] = target: T1, Papain (Carica papaya) (UniProt P00784); experiment: Activity at Carica papaya papain expressed in human A375 cells assessed as 7-amino-4-carbamoylmethylcoumarin release; format: cell-based; conditions: A-375
T1 sequence (whole entry): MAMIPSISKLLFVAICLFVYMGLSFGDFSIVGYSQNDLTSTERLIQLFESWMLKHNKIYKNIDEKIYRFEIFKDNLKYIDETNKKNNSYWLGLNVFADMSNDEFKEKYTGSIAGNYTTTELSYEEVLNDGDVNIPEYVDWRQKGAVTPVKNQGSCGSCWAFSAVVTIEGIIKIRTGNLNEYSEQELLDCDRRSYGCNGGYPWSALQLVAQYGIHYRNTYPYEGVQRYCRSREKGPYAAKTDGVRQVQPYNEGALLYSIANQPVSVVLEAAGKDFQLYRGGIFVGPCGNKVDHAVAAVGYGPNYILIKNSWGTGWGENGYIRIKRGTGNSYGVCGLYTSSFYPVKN

[2] = target: Integrin alpha-4/beta-1 (Homo sapiens) (UniProt P05556+P13612); experiment: Binding affinity to human integrin alpha4beta1 expressed in human A375 cells by flow cytometry; format: cell-based; conditions: A-375

| Activity [1] [ng/min] | Activity [2] | SMILES |
| --- | --- | --- |
| 15.6 |  | CC(C)C[C@H](N)C(=O)N[C@@H](CC(=O)O)C(=O)N[C@H](C(=O)N[C@@H](CCCNC(=N)N)C(=O)N[C@@H](Cc1c[nH]c2ccccc12)C(=O)N[C@@H](CCC(N)=O)C(=O)N[C@@H](Cc1ccc(O)cc1)C(=O)N[C@H](C(=O)N1CCC[C@H]1C(=O)NCC(=O)N[C@@H](CCCCN)C(=O)N[C@@H](Cc1ccccc1)C(=O)N[C@H](C(=O)N[C@H](C(=O)N[C@@H](CCC(N)=O)C(=O)Nc1ccc2c(CC(N)=O)cc(=O)oc2c1)C(C)C)[C@H](C)O)C(C)C)C(C)C |
|  | inactive | CC(C)[C@H](NC(=O)[C@@H](NC(=O)[C@H](Cc1ccccc1)NC(=O)[C@H](CCCCN)NC(=O)CNC(=O)[C@@H]1CCCN1C(=O)[C@@H](NC(=O)[C@H](Cc1ccc(O)cc1)NC(=O)[C@H](CCC(N)=O)NC(=O)[C@H](Cc1c[nH]c2ccccc12)NC(=O)[C@@H](N)CCCNC(=N)N)C(C)C)[C@@H](C)O)C(=O)N[C@@H](CCC(N)=O)C(=O)Nc1ccc2c(CC(N)=O)cc(=O)oc2c1 (H-RWQYVPGKFTVQ-{ACC}) |
